# Test results: patent publication US20060135800A1, “2-Methylene-19,21-dinor-1alpha-hydroxy-bishomopregnacalciferol” (Wisconsin Alumni Research Foundation, priority 2004, published 2006)
# “Also recorded” adds a separate entry of the source.
# Legend:
# [1] = Intestinal calcium transport (everted gut sac method); assay type: in vivo, rat; details: rats, ip; even at 100 times the dose of 1α,25-dihydroxyvitamin D3; FIG. 5
# Procedure: (§1) Male, weanling Sprague-Dawley rats were placed on Diet 11 (0.47% Ca) diet +AEK for one week followed by Diet 11 (0.02% Ca) +AEK for 3 weeks. The rats were then switched to a diet containing 0.47% Ca for one week followed by two weeks on a diet containing 0.02% Ca. Dose administration began during the last week on 0.02% calcium diet. Four consecutive ip doses were given approximately 24 hours apart. Twenty-four hours after the last dose, blood was collected from the severed neck and the concentration of serum calcium determined as a measure of bone calcium mobilization. The first 10 cm of the intestine was also collected for intestinal calcium transport analysis using the everted gut sac method.
# [2] = tested on: HL-60 cells; assay: HL-60 differentiation (nitro blue tetrazolium reduction); assay type: cell-based, human
# Procedure: The study drugs were dissolved in ethanol and the concentrations determined using UV spectrophotometry. Serial dilutions were prepared so that a range of drug concentrations could be tested without changing the final concentration of ethanol (≦0.2%) present in the cell cultures.
# Human promyelocytic leukemia (HL60) cells were grown in RPMI-1640 medium containing 10% fetal bovine serum. The cells were incubated at 37° C. in the presence of 5% CO2.
# HL60 cells were plated at 1.2×10^5 cells/ml. Eighteen hours after plating, cells in duplicate were treated with drug. Four days later, the cells were harvested and a nitro blue tetrazolium reduction assay was performed (Collins et al., 1979; J. Exp. Med. 149:969-974). The percentage of differentiated cells was determined by counting a total of 200 cells and recording the number that contained intracellular black-blue formazan deposits. Verification of differentiation to monocytic cells was determined by measuring phagocytic activity (data not shown).
# [3] = PTH suppression in adult rats; assay type: in vivo, rat; details: normal rats, ip, 7 consecutive days; FIG. 7
# Procedure: (§2) Adult, female Sprague-Dawley rats were obtained from Harlan (Madison, Wis.).
# (§3) Animals were randomly assigned to treatment groups (5 animals/group). All doses were administered intraperitoneally in 100 microliters of propylene glycol. Four to seven consecutive doses were given approximately 24 hours apart. Dosing was initiated after the animals had been allowed to acclimate for at least one week.
# (§4) Both control and test articles were administered by intraperitoneal injection in 100 microliters for 4-7 consecutive days spaced approximately 24 hours apart. 1,25(OH)2D3 was given for 4 consecutive days, whereas, the test drugs were given for 7 consecutive days.
# Twenty-four hours after the final dose, blood was collected from the tail artery and the concentration of bioactive serum PTH was measured using the rat BioActive Intact PTH ELISA Kit from Immutopics, Inc. (San Clemente, Calif.).
# [4] = tested on: 24-hydroxylase (24Ohase) gene promoter in ROS 17/2.8 (bone) cells; assay: In vitro transcription assay (24-hydroxylase promoter luciferase reporter); assay type: cell-based; details: stably transfected Ros17/2.8 (bone) cells; FIG. 3
# Procedure: Transcription activity was measured in ROS 17/2.8 (bone) cells that were stably transfected with a 24-hydroxylase (24Ohase) gene promoter upstream of a luciferase reporter gene (Arbour et al., 1998). Cells were given a range of doses. Sixteen hours after dosing the cells were harvested and luciferase activities were measured using a luminometer. RLU=relative luciferase units.
# [5] = target: T1, full-length recombinant rat vitamin D receptor (Rattus norvegicus, UniProt P13053); assay: Vitamin D receptor binding, competition with [3H]-1,25-(OH)2-D3
# T1 construct: Full-length recombinant rat receptor was expressed in E. coli; His tag (C); made in house; host or cells: E. coli BL21(DE3) Codon Plus RIL
# T1 sequence (P13053 1-423): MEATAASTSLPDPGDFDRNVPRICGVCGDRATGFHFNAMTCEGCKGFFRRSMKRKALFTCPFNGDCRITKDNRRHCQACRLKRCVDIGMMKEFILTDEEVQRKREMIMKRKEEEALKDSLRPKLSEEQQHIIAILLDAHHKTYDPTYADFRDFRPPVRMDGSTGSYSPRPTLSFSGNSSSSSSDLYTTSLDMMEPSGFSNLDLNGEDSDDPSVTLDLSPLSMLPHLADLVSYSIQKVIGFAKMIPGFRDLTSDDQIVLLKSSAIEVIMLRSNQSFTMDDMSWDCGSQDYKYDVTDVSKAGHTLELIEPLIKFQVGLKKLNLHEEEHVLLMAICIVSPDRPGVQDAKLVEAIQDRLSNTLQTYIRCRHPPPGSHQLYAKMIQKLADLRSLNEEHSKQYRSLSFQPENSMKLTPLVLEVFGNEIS
# Procedure: Full-length recombinant rat receptor was expressed in E. coli BL21(DE3) Codon Plus RIL cells and purified to homogeneity using two different column chromatography systems. The first system was a nickel affinity resin that utilizes the C-terminal histidine tag on this protein. The protein that was eluted from this resin was further purified using ion exchange chromatography (S-Sepharose Fast Flow). Aliquots of the purified protein were quick frozen in liquid nitrogen and stored at −80° C. until use. For use in binding assays, the protein was diluted in TEDK50 (50 mM Tris, 1.5 mM EDTA, pH 7.4, 5 mM DTT, 150 mM KCl) with 0.1% Chaps detergent. The receptor protein and ligand concentration was optimized such that no more than 20% of the added radiolabeled ligand was bound to the receptor.
# Unlabeled ligands were dissolved in ethanol and the concentrations determined using UV spectrophotometry (1,25(OH)2D3: molar extinction coefficient=18,200 and λmax=265 nm; Analogs: molar extinction coefficient=42,000 and λmax=252 nm). Radiolabeled ligand (^3H-1,25(OH)2D3, ˜159 Ci/mmole) was added in ethanol at a final concentration of 1 nM.
# Radiolabeled and unlabeled ligands were added to 100 mcl of the diluted protein at a final ethanol concentration of ≦10%, mixed and incubated overnight on ice to reach binding equilibrium. […] Total binding was determined from the tubes containing only radiolabeled ligand.
# [6] = Serum calcium in adult rats (hypercalcemia); assay type: in vivo, rat; details: ip, FIG. 6
# Procedure: as §2, §3, §4
# Twenty-four hours after the final dose, approximately 1 ml of blood was collected from the tail artery of each experimental animal. The blood was allowed to coagulate at room temperature and then centrifuged at 3000×g for 15 minutes. The serum was transferred to a polypropylene tube and stored frozen at −20° C. The level of calcium was determined by diluting the serum into 0.1% lanthum chloride and measuring the absorbance on an atomic absorption spectrophotometer (Perkin Elmer Model 3110, Shelton, Conn.).
# [7] = Bone calcium mobilization (serum calcium); assay type: in vivo, rat; details: rats, ip; even at 100 times the dose of 1α,25-dihydroxyvitamin D3; FIG. 4
# Procedure: as §1
smiles,measurement,setting,value
"C=C1[C@H](O)CC(=C/C=C2\CCC[C@]3(C)C(CCC)CC[C@@H]23)C[C@H]1O (stereo in doubt) [2-methylene-19,21-dinor-1α-hydroxy-bishomopregnacalciferol]",calcemic activity measured by intestinal calcium transport,[1],very low intestinal calcium transport activity; also recorded: no calcemic activity
same,"inducing differentiation of HL-60 cells, times less active than 1α,25-dihydroxyvitamin D3","[2]; relative to 1α,25-dihydroxyvitamin D3, FIG. 2",about 15 times
same,cell differentiation activity (in words),[2]; summary statement,relatively high cell differentiation activity
same,suppressing parathyroid hormone levels,[3],significant activity
same,stimulating transcription of a reporter gene,[4],active
same,"binding to the recombinant vitamin D receptor, times less active than 1α,25-dihydroxyvitamin D3","[5]; relative to 1α,25-dihydroxyvitamin D3, FIG. 1",about 5 times
same,binding to vitamin D receptors (in words),[5]; summary statement,relatively high binding
same,raising serum calcium concentrations,[6],absence of raising serum calcium concentrations
same,calcemic activity measured by bone calcium mobilization,[7],very low ability to mobilize calcium from bone; also recorded: no calcemic activity
